From ChEMBL document CHEMBL1201862, “PubChem BioAssay data set” (2004)
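Growth conditions: 96-well plates. Treatment: test compound, 48 hours, 5 concentrations. Analysis: linear interpolation between bracketing concentrations; unreached endpoints set to highest concentration. Here, GI50 denotes the concentration required for 50% inhibition of growth.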 Activity calls are given as the source filed them. Rule as the data show it: active = GI50 up to about 1.1 µM and inactive = higher.

Tests used:
Test in all cases: DTP human tumour cell line panel, 48 h
[1] = test system: NCI-H226
[2] = test system: 786-0
[3] = test system: A549
[4] = test system: NCI-H460
[5] = test system: Malme-3M
[6] = test system: EKVX
[7] = test system: SNB-75
[8] = test system: OVCAR-5
[9] = test system: OVCAR-3
[10] = test system: COLO 205
[11] = test system: UO-31
[12] = test system: SW-620
[13] = test system: HL-60
[14] = test system: HT-29
[15] = test system: DMS-273
[16] = test system: SK-MEL-28
[17] = test system: BT-549
[18] = test system: MDA-MB-231
[19] = test system: NCI/ADR-RES
[20] = test system: MCF7

Structure (SMILES)	GI50 [1]	GI50 [2]	GI50 [3]	GI50 [4]	GI50 [5]	GI50 [6]	GI50 [7]	GI50 [8]	GI50 [9]	GI50 [10]	GI50 [11]	GI50 [12]	GI50 [13]	GI50 [14]	GI50 [15]	GI50 [16]	GI50 [17]	GI50 [18]	GI50 [19]	GI50 [20]
COc1c(C)cc(O)cc1C=O	> 100000 nM (inactive)	> 100000 nM (inactive)	> 100000 nM (inactive)	> 100000 nM (inactive)	> 100000 nM (inactive)	> 100000 nM (inactive)	> 100000 nM (inactive)	> 100000 nM (inactive)	> 100000 nM (inactive)	> 100000 nM (inactive)	> 100000 nM (inactive)	> 100000 nM (inactive)	> 100000 nM (inactive)	> 100000 nM (inactive)	> 100000 nM (inactive)	> 100000 nM (inactive)	–	–	–	–
COc1ccc2nc3cc(Cl)ccc3c(NCCCN(CCCl)CCCl)c2c1	38.5 nM (active)	10.1 nM (active)	< 12.2 nM (active)	< 10 nM (active)	84.1 nM (active)	110 nM (active)	177 nM (active)	34 nM (active)	43.2 nM (active)	< 10 nM (active)	47.2 nM (active)	11.6 nM (active)	< 10 nM (active)	11.9 nM (active)	16.1 nM (active)	197 nM (active)	129 nM (active)	31.6 nM (active)	< 10 nM (active)	< 10 nM (active)
O=C1c2c(O)cccc2C(C(=O)CCCCCC(=O)C2c3cccc(O)c3C(=O)c3c(O)cccc32)c2cccc(O)c21	3640 nM (inactive)	10600 nM (inactive)	1030 nM (active)	586 nM (active)	2390 nM (inactive)	957 nM (active)	1030 nM (active)	3220 nM (inactive)	938 nM (active)	1980 nM (inactive)	1150 nM (inactive)	1090 nM (active)	1150 nM (inactive)	4490 nM (inactive)	4980 nM (inactive)	804 nM (active)	–	–	–	–
COc1cc(/C=C\c2ccc(C)cc2)cc(OC)c1OC	26.6 nM (active)	4.56 nM (active)	4.8 nM (active)	23.2 nM (active)	3.59 nM (active)	72.1 nM (active)	2.81 nM (active)	116 nM (active)	1.15 nM (active)	10.1 nM (active)	120 nM (active)	1.92 nM (active)	0.57 nM (active)	7.83 nM (active)	1.2 nM (active)	16.7 nM (active)	24.6 nM (active)	25.9 nM (active)	7.67 nM (active)	41.5 nM (active)
CN(C)c1ccc(/C=C2\CCc3ccccc3C2=O)cc1Br	> 100000 nM (inactive)	> 100000 nM (inactive)	51300 nM (inactive)	> 100000 nM (inactive)	42800 nM (inactive)	99500 nM (inactive)	> 100000 nM (inactive)	> 100000 nM (inactive)	49000 nM (inactive)	68900 nM (inactive)	> 100000 nM (inactive)	34200 nM (inactive)	21200 nM (inactive)	33100 nM (inactive)	34700 nM (inactive)	71100 nM (inactive)	–	–	–	–
COc1ccc(-c2cnoc2-c2ccc(OC)c(OC)c2)cc1OC	1710 nM (inactive)	1640 nM (inactive)	3020 nM (inactive)	2480 nM (inactive)	2150 nM (inactive)	1310 nM (inactive)	1780 nM (inactive)	3720 nM (inactive)	1310 nM (inactive)	1180 nM (inactive)	4460 nM (inactive)	414 nM (active)	313 nM (active)	1270 nM (inactive)	314 nM (active)	1620 nM (inactive)	–	–	–	–
